Measurements as given in US20190328753A1, “COMPOSITIONS AND METHODS FOR TREATING OCULAR DISEASES” (priority 2015, published 2019).
Where “and” joins values, the source holds several entries; their conditions need not be identical. Equal entries are not always repeated.

Tested on: patients with moderate to severe MGD
Assay: Clinical trial (Example 8): topical Spironolactone (3 mg/ml) in MGD, retrospective pre-post
Details: for improvement in self-reported global assessment scores / mean improvement in obstruction score / mean improvement in turbidity score / mean improvement in vascularity score / mean improvement in zone A score: positive = score decrease; for Anterior Blepharitis, mean change / Obstruction, mean change / Turbidity, mean change / Vascularity, mean change / Zone A, mean change / Anterior Blepharitis, Mean / Obstruction, Mean / Turbidity, Mean / Vascularity, Mean / Zone A, Mean: scale 0-4; for Subjective Global Assessment, mean change / Global Evaluation, Mean: scale 0-10
[1] = baseline vs follow up 1, low Schirmer's, n=27
[2] = baseline vs follow up 1, low Schirmer's, n=27, scale 0-3
[3] = baseline vs follow up 1, normal Schirmer's, n=75
[4] = final follow-up, patients with >1 follow-ups, low Schirmer's, n=10
[5] = final follow-up, patients with >1 follow-ups, low Schirmer's, n=10, scale 0-3
[6] = final follow-up, patients with >1 follow-ups, normal Schirmer's, n=28
[7] = final follow-up, patients with >1 follow-ups, normal Schirmer's, n=28, scale 0-3
[8] = follow-up 1, low Schirmer's, n=27 (FIG. 10)
[9] = follow-up 1, normal Schirmer's, n=75 (FIG. 9)
[10] = follow-up 1, patients with >1 follow-ups, low Schirmer's, n=10
[11] = follow-up 1, patients with >1 follow-ups, low Schirmer's, n=10, scale 0-3

CC(=O)SC1CC2=CC(=O)CCC2(C)C2CCC3(C)C(CCC34CCC(=O)O4)C12 (stereo not drawn) [spironolactone, 7α-acetylthio-3-oxo-17α-pregn-4-ene-21,17-carbolactone]
Schirmer's OD, mean change [1]: 2.61±7.03 mm and 2.611 mm | Schirmer's OS, mean change [1]: 2.33±4.74 mm and 2.327 mm | Vision OS, mean change [1]: −0.0198±0.078 log Mar units and −0.0198 log Mar units | improvement in self-reported global assessment scores [1]: 0.98±2.18 | mean improvement in obstruction score [1]: 0.39±1.48 | mean improvement in turbidity score [1]: 0.69±0.76 | mean improvement in vascularity score [1]: 0.33±0.55 | mean improvement in zone A score [1]: 0.63±1.21 | Keratitis OS Corneal, mean change [2]: 0±0.4 and 0 | Keratitis OS Nasal, mean change [2]: 0.15±0.70 and 0.1538 | Keratitis OS Temporal, mean change [2]: 0.038±0.56 and 0.03846 | Anterior Blepharitis, mean change [1]: 0.0±0.64 and 0 | Obstruction, mean change [1]: −0.3889 | Turbidity, mean change [1]: −0.6852 | Vascularity, mean change [1]: −0.3333 | Zone A, mean change [1]: −0.6296 | Subjective Global Assessment, mean change [1]: −0.9815 | Schirmer's OD, mean change [3]: 0.11±8.07 mm and 0.1096 mm | Schirmer's OS, mean change [3]: 0.92±9.43 mm and 0.9178 mm | improvement in self-reported global assessment scores [3]: 1.29±1.80 | mean improvement in obstruction score [3]: 0.36±0.90 | mean improvement in turbidity score [3]: 0.93±0.73 | mean improvement in vascularity score [3]: 0.31±0.713 | mean improvement in zone A score [3]: 0.53±0.83 | Keratitis OS Corneal, mean change (baseline vs follow up 1, normal Schirmer's, n=75, scale 0-3): 0±0.32 and 0 | Anterior Blepharitis, mean change [3]: 0.04±0.70 and 0.04 | Obstruction, mean change [3]: −0.3633 | Turbidity, mean change [3]: −0.9267 | Vascularity, mean change [3]: −0.31 | Zone A, mean change [3]: −0.5533 | Subjective Global Assessment, mean change [3]: −1.287 | Schirmer's OD, Mean [4]: 11.7±10.94 and 11.7 | Schirmer's OS, Mean [4]: 8.78±9.98 and 8.778 | Vision OD, Mean [4]: 0.13±0.15 log Mar units and 0.1264 log Mar units | Vision OS, Mean [4]: 0.11±0.11 log Mar units and 0.1059 log Mar units | Keratitis OD Corneal, Mean [5]: 0.0±0.0 and 0 | Keratitis OD Nasal, Mean [5]: 0.75±0.63 and 0.75 | Keratitis OD Temporal, Mean [5]: 0.7±0.71 and 0.7 | Keratitis OS Corneal, Mean [5]: 0.33±0.5 and 0.3333 | Keratitis OS Nasal, Mean [5]: 1.06±0.92 and 1.056 | Keratitis OS Temporal, Mean [5]: 0.83±0.79 and 0.8333 | Anterior Blepharitis, Mean [4]: 0.2±0.42 and 0.2 | Obstruction, Mean [4]: 0.75±0.42 and 0.75 | Turbidity, Mean [4]: 2.1±0.74 and 2.1 | Vascularity, Mean [4]: 1.4±0.77 and 1.4 | Zone A, Mean [4]: 2.8±0.79 and 2.8 | Global Evaluation, Mean [4]: 4.4±2.62 and 4.4 | Schirmer's OD, Mean [6]: 18.52±9.83 and 18.52 | Schirmer's OS, Mean [6]: 17.04±8.48 and 17.04 | Vision OD, Mean [6]: 0.05±0.18 log Mar units and 0.04593 log Mar units | Vision OS, Mean [6]: 0.05±0.12 log Mar units and 0.04933 log Mar units | Keratitis OD Corneal, Mean [7]: 0.0±0.0 and 0 | Keratitis OD Nasal, Mean [7]: 0.63±0.63 and 0.625 | Keratitis OD Temporal, Mean [7]: 0.55±0.60 and 0.5536 | Keratitis OS Corneal, Mean [7]: 0.16±0.49 and 0.1607 | Keratitis OS Nasal, Mean [7]: 0.75±0.57 and 0.75 | Keratitis OS Temporal, Mean [7]: 0.70±0.57 and 0.6964 | Anterior Blepharitis, Mean [6]: 0.32±0.78 and 0.3214 | Obstruction, Mean [6]: 1.05±0.71 and 1.054 | Turbidity, Mean [6]: 1.80±0.83 and 1.804 | Vascularity, Mean [6]: 1.13±0.91 and 1.125 | Zone A, Mean [6]: 2.71±0.80 and 2.714 | Global Evaluation, Mean [6]: 3.55±1.30 and 3.554 | increase in Schirmer's I scores (follow-up 1, low Schirmer's, n=27): approximately 40% | percent reduction in Global Evaluation score from baseline [8]: 22.98% | percent reduction in Turbidity score from baseline [8]: 30.70% | percent reduction in Vascularity score from baseline [8]: 30.48% | percent reduction in Zone A score from baseline [8]: 22.65% | percent reduction in Global Evaluation score from baseline [9]: 27.52% | percent reduction in Obstruction score from baseline [9]: 31.23% | percent reduction in Turbidity score from baseline [9]: 41.82% | percent reduction in Vascularity score from baseline [9]: 24.51% | percent reduction in Zone A score from baseline [9]: 19.86% | Schirmer's OD, Mean [10]: 8.8±6.7 and 8.8 | Schirmer's OS, Mean [10]: 7.22±5.19 and 7.222 | Vision OD, Mean [10]: 0.07±0.10 log Mar units and 0.06633 log Mar units | Vision OS, Mean [10]: 0.09±0.14 log Mar units and 0.08737 log Mar units | Keratitis OD Corneal, Mean [11]: 0.0±0.0 and 0 | Keratitis OD Nasal, Mean [11]: 0.60±0.66 and 0.6 | Keratitis OD Temporal, Mean [11]: 0.65±0.71 and 0.65 | Keratitis OS Corneal, Mean [11]: 0.22±0.44 and 0.2222 | Keratitis OS Nasal, Mean [11]: 1.28±0.57 and 1.278 | Keratitis OS Temporal, Mean [11]: 1.0±0.66 and 1 | Anterior Blepharitis, Mean [10]: 0.3±0.67 and 0.3 | Obstruction, Mean [10]: 1.35±1.06 and 1.35
